Measurements published in publication PMC9652379, “Safety evaluations of a synthetic antimicrobial peptide administered intravenously in rats and dogs” (Scientific Reports, 2022).
Positions of bridges follow the written chain, without caps; N, C: chain ends. Non-standard residues stand in square brackets, D forms with d. Residues, ends and D or L forms follow the SMILES beside them. Chains are numbered I, II in the order given. βAla = NCCC(=O)O

Tests used:
[1] = Toxicokinetics in rats, 4 weeks daily iv slow bolus; type: in vivo, rat; conditions: for AUC(0-t) / Cmax / tmax: iv
Procedure: SET-M33 was administered intravenously as a slow bolus to Sprague Dawley rats once daily for 4 weeks at 0 (vehicle only), 5, 9 and 15 mg/kg/day (control group 3 animals/sex, treated groups 6 animals/sex). Blood samples were taken on day 1 and day 28. […] Mean plasma SET-M33 exposure increased in parallel with dose in males and females. […] Mean time to maximum plasma SET-M33 concentration (tmax) was 5 min post-dose for both times and sexes as expected for intravenous bolus administration. […] On day 28, female intermediate dose AUC0-t ratio was 1.7 times the theoretical ratio.
Blood samples were drawn from the retro-orbital sinus under light isoflurane anaesthesia for determination of plasma SET-M33 levels. The samples were taken on days 1 and 28 of treatment at the following times: control group: pre-dose and 30 min; 5, 9 and 15 mg/kg/day-group: pre-dose, 5, 15, 30, 60 min and 24 h after administration. Blood samples were collected into polypropylene test tubes containing lithium heparin anticoagulant and kept at room temperature for no longer than 60 min until centrifuging (1600 g for 10 min at 2–8 °C). The plasma obtained from each sample was transferred to a fresh polypropylene test tubes, immediately frozen in dry ice and stored at − 20 °C ± 5. Plasma concentrations of SET-M33 were measured by a previously validated LC–MS/MS method. Toxicokinetic parameters were determined for mean plasma concentrations at each dose level and time point, according to the validated method and with WinNonlin software, version 6.3, in the Phoenix Suite version 1.3 (Pharsight Corporation, Mountain View, CA, USA).

in vivo = conditions: dog
Procedure: Concentrations of SET-M33 in dog plasma samples and the main toxicokinetic parameters were determined. The exposure parameters (AUCt and Cmax) were compared to evaluate dose-dependency, accumulation ratio and sex-related differences. […] Mean SET-M33 plasma levels increased in parallel in males and females. Mean time to maximum SET-M33 concentration (tmax) was after the end of infusion for both periods (days 1 and 7) and sexes, i.e. 30 min post-dose, coherently with intravenous administration. On day 1 and 7, mean AUCt and Cmax values for the low vs. high dose were close to the theoretical ratio of 2.
Blood samples were taken by direct venepuncture of the jugular vein on days 1 and 7 to determine plasma levels of SET-M33. Sampling times were as follows: Day 1: at 0, 5, 15, 30, 60 and 180 min. Day 7: at 0, 5, 15, 30, 60, 180 min and 24 h after administration. Control animals were only bled once on days 1 and 7 of treatment, 1 h after administration. Blood samples were collected into lithium heparin test tubes and kept in an ice bath until centrifuging (1600 g for 10 min at 2–8 °C). The plasma obtained from each sample was transferred to a fresh polypropylenes test tubes, immediately frozen in dry ice and stored at − 20 °C ± 5.

[2] = female, Sprague Dawley, rat, in vivo, 5 mg/kg/day
[3] = male, Sprague Dawley, rat, in vivo, 5 mg/kg/day
[4] = male, Sprague Dawley, rat, in vivo, 9 mg/kg/day
[5] = male, Sprague Dawley, rat, in vivo, 15 mg/kg/day

## CC[C@H](C)[C@H](NC(=O)[C@H](CCCCN)NC(=O)[C@@H](N)CCCCN)C(=O)N[C@@H](CCCNC(=N)N)C(=O)N[C@H](C(=O)N[C@@H](CCCNC(=N)N)C(=O)N[C@@H](CC(C)C)C(=O)N[C@@H](CO)C(=O)N[C@@H](C)C(=O)NCCCC[C@H](NC(=O)[C@H](C)NC(=O)[C@H](CO)NC(=O)[C@H](CC(C)C)NC(=O)[C@H](CCCNC(=N)N)NC(=O)[C@@H](NC(=O)[C@H](CCCNC(=N)N)NC(=O)[C@@H](NC(=O)[C@H](CCCCN)NC(=O)[C@@H](N)CCCCN)[C@@H](C)CC)C(C)C)C(=O)NCCCC[C@H](NC(=O)[C@H](CCCCNC(=O)[C@H](C)NC(=O)[C@H](CO)NC(=O)[C@H](CC(C)C)NC(=O)[C@H](CCCNC(=N)N)NC(=O)[C@@H](NC(=O)[C@H](CCCNC(=N)N)NC(=O)[C@@H](NC(=O)[C@H](CCCCN)NC(=O)[C@@H](N)CCCCN)[C@@H](C)CC)C(C)C)NC(=O)[C@H](C)NC(=O)[C@H](CO)NC(=O)[C@H](CC(C)C)NC(=O)[C@H](CCCNC(=N)N)NC(=O)[C@@H](NC(=O)[C@H](CCCNC(=N)N)NC(=O)[C@@H](NC(=O)[C@H](CCCCN)NC(=O)[C@@H](N)CCCCN)[C@@H](C)CC)C(C)C)C(=O)NCCC(=O)O)C(C)C [SET-M33] (I: H-KKIRVRLSAKK[βAla]-OH / II: H-KKIRVRLSAK / III: H-KKIRVRLSA / IV: H-KKIRVRLSA; amide I:10-IV:C, I:11-II:C, II:10-III:C (inferred); N-terminus and C-terminus assumed)
[1]; [2]
  AUC(0-t): 1218 ng·h/mL
  Cmax: 4103 ng/mL
[1]; female, Sprague Dawley, rat, in vivo, 5 mg/kg/day, AUC0-t
  AUC(0-t): 663 ng·h/mL
[1]; female, Sprague Dawley, rat, in vivo, 5 mg/kg/day, Cmax
  Cmax: 2110 ng/mL
[1]; [3]
  AUC(0-t): 938 ng·h/mL
  Cmax: 3017 ng/mL
  tmax: 5 min
[1]; male, Sprague Dawley, rat, in vivo, 5 mg/kg/day, AUC0-t
  AUC(0-t): 692 ng·h/mL
[1]; male, Sprague Dawley, rat, in vivo, 5 mg/kg/day, Cmax
  Cmax: 2230 ng/mL
[1]; [4]
  AUC(0-t): 1819 ng·h/mL
  Cmax: 5890 ng/mL
  tmax: 5 min
[1]; male, Sprague Dawley, rat, in vivo, 9 mg/kg/day, AUC0-t
  AUC(0-t): 1430 ng·h/mL
[1]; male, Sprague Dawley, rat, in vivo, 9 mg/kg/day, Cmax
  Cmax: 4560 ng/mL
[1]; [5]
  AUC(0-t): 2734 ng·h/mL
  Cmax: 8170 ng/mL
  tmax: 5 min
[1]; male, Sprague Dawley, rat, in vivo, 15 mg/kg/day, AUC0-t
  AUC(0-t): 2240 ng·h/mL
[1]; male, Sprague Dawley, rat, in vivo, 15 mg/kg/day, Cmax
  Cmax: 6040 ng/mL
[1]; rat, in vivo
  mean tmax: 5 min
  quantifiable plasma concentrations until, post-dose: 1 h
[1]; rat, in vivo, 9 mg/kg/day
  intermediate dose AUC0-t ratio relative to the theoretical ratio: 1.7 times
  tmax: 5 min
[1]; rat, in vivo, 5 mg/kg/day
  tmax: 5 min
[1]; rat, in vivo, 15 mg/kg/day
  tmax: 5 min
[1]; rats, 5 vs 9 mg/kg/day, day 1
  mean AUC0-t ratio, low vs. intermediate dose (theoretical ratio 1.8): 2
  mean Cmax ratio, low vs. intermediate dose (theoretical ratio 1.8): 1.7–2
[1]; rats, 5 vs 15 mg/kg/day, day 1
  mean AUC0-t ratio, low vs. high dose (theoretical ratio 3): 2.9–3.2
  mean Cmax ratio, low vs. high dose (theoretical ratio 3): 2.7
In vivo; both sexes, beagle, iv
  tmax: 30 min
In vivo; 8 mg/kg/day
  quantifiable plasma concentrations until, after the start of infusion: up to 24.5 h
